Measurements: paper PMC8159961, “Exploring protein hotspots by optimized fragment pharmacophores” (Nature Communications, 2021)
Where “and” joins values, the source holds several entries; their conditions need not be identical. Equal entries are not always repeated. Where two headings read alike, the source gives them in different places.

Experiments:
[1] = target: T1, human thrombin (Homo sapiens, UniProt P00734); test: Protease inhibitory assay, chromogenic substrate S-2238; type: biochemical; settings: for vinit: replicate values; for Ki: Thrombin, one of two values averaged in Supplementary Data 1, read-out: Ki
T1 construct: human thrombin; purchased Sigma-Aldrich

[2] = target: T2, bovine factor Xa (Bos taurus, UniProt P00743); test: Protease inhibitory assay, chromogenic substrate S-2222; type: biochemical; settings: cmpd conc 200 µM; for vinit: replicate values; for Ki: FactorXa, one of two values averaged in Supplementary Data 1, read-out: Ki
T2 construct: bovine factor Xa, Chromogenix, 2 nkat/mL; purchased Chromogenix
T2 sequence (P00743 234-492 limits assumed): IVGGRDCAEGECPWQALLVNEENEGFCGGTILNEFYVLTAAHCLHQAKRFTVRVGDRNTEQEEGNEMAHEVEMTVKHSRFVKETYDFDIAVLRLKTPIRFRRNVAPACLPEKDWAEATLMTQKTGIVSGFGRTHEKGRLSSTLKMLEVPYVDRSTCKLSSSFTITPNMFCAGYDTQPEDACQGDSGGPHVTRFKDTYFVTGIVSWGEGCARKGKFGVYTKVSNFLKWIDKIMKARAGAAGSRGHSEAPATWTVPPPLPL
T2 sequence (P00743 41-180 partner limits assumed): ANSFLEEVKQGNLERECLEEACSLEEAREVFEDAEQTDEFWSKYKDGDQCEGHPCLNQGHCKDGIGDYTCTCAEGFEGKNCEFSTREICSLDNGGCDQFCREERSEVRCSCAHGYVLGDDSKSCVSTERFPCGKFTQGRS

[3] = Thrombin primary screening, substrate 40 µM, cmpd conc 500 µM
[4] = FactorXa Ki determination, substrate 100 µM
[5] = FactorXa Ki determination, substrate 200 µM
[6] = FactorXa primary screening, substrate 100 µM
[7] = Thrombin Ki determination, substrate 20 µM, cmpd conc 200 µM
[8] = Thrombin Ki determination, substrate 40 µM, cmpd conc 200 µM
[9] = substrate 20 µM, cmpd conc 200 µM
[10] = substrate 40 µM, cmpd conc 200 µM

O=C(c1ccccc1F)N1CCNCC1 [SX-E12]
V0 / Vi [1, 3]: 0.98
vinit [1, 3]: 32.036 and 31.782
V0 / Vi [2, 4]: 1.26
vinit, avrg. [2, 4]: 12.944
vinit [2, 4]: 12.386 and 12.902 and 13.544
V0 / Vi [2, 5]: 1.17
vinit [2, 5]: 30.668 and 30.24 and 32.808
V0 / Vi [2, 6]: 1.28
vinit [2, 6]: 11.3
Ki ([2]; substrate 100 µM): 482 µM
Ki ([2]; substrate 200 µM): 538 µM

COC(=O)c1c(C)nc(C2CC2)[nH]c1=O [SX-F1]
V0 / Vi [1, 3]: 1.06
vinit [1, 3]: 25.964 and 29.418
V0 / Vi [2, 6]: 0.96
vinit [2, 6]: 17.6 and 18.945

c1cnc2c(c1)NCCC2 [SX-E7]
V0 / Vi [1, 3]: 0.93
vinit [1, 3]: 33.927 and 32.545
V0 / Vi [2, 6]: 0.98
vinit [2, 6]: 18.836 and 17.745

N#CC1CCS(=O)(=O)C1 (stereo not drawn) [SX-F2]
V0 / Vi [1, 3]: 0.97
vinit [1, 3]: 30.436 and 30.255
V0 / Vi [2, 6]: 0.97
vinit [2, 6]: 17.745 and 18.291

c1ccc2sc(N3CCNCC3)nc2c1 [SX-G5]
V0 / Vi [1, 3]: 1.04
vinit [1, 3]: 31.164 and 32.073
V0 / Vi [2, 6]: 1.01
vinit [2, 6]: 16.1 and 17.4

c1cnc2ncccc2c1 [SX-A3]
V0 / Vi [1, 3]: 1.00
vinit [1, 3]: 28.545 and 30.364
V0 / Vi [2, 6]: 0.96
vinit [2, 6]: 18.873 and 17.673

COc1ccc(CN2CCNCC2)cc1F [SX-D11]
V0 / Vi [1, 3]: 0.91
vinit [1, 3]: 34.582 and 34.364
V0 / Vi [2, 6]: 0.84
vinit [2, 6]: 17.75 and 16.65

Cc1nccn1Cc1cccc(C#N)c1 [SX-F8]
V0 / Vi [1, 3]: 0.91
vinit [1, 3]: 34 and 33.891
V0 / Vi [2, 6]: 0.98
vinit [2, 6]: 18.582 and 18

NC(=O)N1CCC(C(=O)O)CC1 [SX-D12]
V0 / Vi [1, 7]: 1.08
vinit, avrg. [1, 7]: 24.461
vinit [1, 7]: 23.803 and 25.267 and 24.313
V0 / Vi [1, 8]: 1.04
vinit, avrg. [1, 8]: 32.560
vinit [1, 8]: 34.041 and 32.608 and 31.031
V0 / Vi [1, 3]: 1.12
vinit [1, 3]: 28.036 and 28.145
Ki [1, 9]: 273 µM
Ki [1, 10]: 329 µM
V0 / Vi [2, 6]: 1.16
vinit [2, 6]: 11.2 and 13.7

O=C1NC2(CCCC2)Nc2ccccc21 [SX-C9]
V0 / Vi [1, 3]: 1.01
vinit [1, 3]: 30.218 and 31.018
V0 / Vi [2, 6]: 0.98
vinit [2, 6]: 18.873 and 17.6

Cc1cc(-c2ccccc2)n[nH]1 [SX-A8]
V0 / Vi [1, 3]: 0.97
vinit [1, 3]: 32.036 and 32.145
V0 / Vi [2, 6]: 0.98
vinit [2, 6]: 19.236 and 17.164

CC1CCc2sc(C(=O)O)cc2C1 (stereo not drawn) [SX-D9]
V0 / Vi [1, 7]: 1.41
vinit, avrg. [1, 7]: 18.876
vinit [1, 7]: 19.443 and 19.03 and 18.15
V0 / Vi [1, 8]: 1.17
vinit, avrg. [1, 8]: 28.950
vinit [1, 8]: 33.096 and 26.331 and 27.42
V0 / Vi [1, 3]: 1.40
vinit [1, 3]: 23.527 and 20.764
Ki [1, 9]: 57 µM
Ki [1, 10]: 73 µM
V0 / Vi [2, 6]: 1.04
vinit [2, 6]: 17.818 and 16.655

Oc1cnc(-c2ccccc2)nc1 [SX-F11]
V0 / Vi [1, 3]: 1.02
vinit [1, 3]: 30.836 and 30.8
V0 / Vi [2, 6]: 1.00
vinit [2, 6]: 14.672 and 14.2

CC1C(=O)NC(=O)N1c1ccc(Cl)cc1 (stereo not drawn) [SX-E3]
V0 / Vi [1, 3]: 0.98
vinit [1, 3]: 29.964 and 29.673
V0 / Vi [2, 6]: 1.01
vinit [2, 6]: 17.673 and 16.982

O=C1NC(=O)C2(CCc3ccccc32)N1 (stereo not drawn) [SX-B7]
V0 / Vi [1, 3]: 0.98
vinit [1, 3]: 31.782 and 31.345
V0 / Vi [2, 6]: 0.98
vinit [2, 6]: 19.273 and 17.122

O=c1ccc2c([nH]1)CCCC2 [SX-C5]
V0 / Vi [1, 3]: 1.00
vinit [1, 3]: 30.182 and 29.673
V0 / Vi [2, 6]: 1.05
vinit [2, 6]: 16.714 and 16

Cc1ccc(CCNc2ccccc2)cn1 [SX-H11]
V0 / Vi [1, 3]: 1.00
vinit [1, 3]: 31.714 and 31.42
V0 / Vi [2, 6]: 0.99
vinit [2, 6]: 15.4 and 17

NCC1(c2ccccc2)CCOCC1 [SX-F10]
V0 / Vi [1, 3]: 0.89
vinit [1, 3]: 36.218 and 34.182
V0 / Vi [2, 6]: 0.94
vinit [2, 6]: 14.6 and 16.3

O=C(CN1CCNCC1)c1ccccc1 [SX-E5]
V0 / Vi [1, 3]: 1.06
vinit [1, 3]: 28.618 and 27.418
V0 / Vi [2, 6]: 0.97
vinit [2, 6]: 18.286 and 17.357

Fc1ccc(CC2CCCNC2)cc1 (stereo not drawn) [SX-C1]
V0 / Vi [1, 3]: 0.97
vinit [1, 3]: 29.564 and 30.8
V0 / Vi [2, 6]: 0.94
vinit [2, 6]: 18.218 and 18.909

Cc1ccc(C)n1Cc1ccccc1Cl [SX-D6]
V0 / Vi [1, 3]: 1.24
vinit [1, 3]: 26.364 and 21.673
V0 / Vi [2, 6]: 0.98
vinit [2, 6]: 17.786 and 17.286

O=C1CNCCN1c1ccccc1 [SX-B2]
V0 / Vi [1, 3]: 1.05
vinit [1, 3]: 28.909 and 27.2
V0 / Vi [2, 6]: 1.00
vinit [2, 6]: 17.273 and 17.782

O=C(O)C1CCN(c2ncccn2)CC1 [SX-E9]
V0 / Vi [1, 7]: 1.35
vinit, avrg. [1, 7]: 19.600
vinit [1, 7]: 19.72 and 18.944 and 20.14
V0 / Vi [1, 8]: 1.14
vinit, avrg. [1, 8]: 29.629
vinit [1, 8]: 27.932 and 30.186 and 30.77
V0 / Vi [1, 3]: 1.21
vinit [1, 3]: 27.382 and 24
Ki [1, 9]: 65 µM
Ki [1, 10]: 87 µM
V0 / Vi [2, 6]: 1.08
vinit [2, 6]: 16.073 and 17.018

c1cnc2cccnc2c1 [SX-A2]
V0 / Vi [1, 7]: 1.14
vinit, avrg. [1, 7]: 23.193
vinit [1, 7]: 23.633 and 22.973 and 22.97
V0 / Vi [1, 8]: 1.07
vinit, avrg. [1, 8]: 31.452
vinit [1, 8]: 33.054 and 31.27 and 30.03
V0 / Vi [1, 3]: 1.13
vinit [1, 3]: 26.327 and 25.6
Ki [1, 9]: 160 µM
Ki [1, 10]: 166 µM
V0 / Vi [2, 6]: 1.03
vinit [2, 6]: 17.164 and 16.836

CC(=O)c1ccc2c(c1)CNCC2 [SX-C8]
V0 / Vi [1, 3]: 0.98
vinit [1, 3]: 32.218 and 31.018
V0 / Vi [2, 6]: 0.98
vinit [2, 6]: 18.691 and 17.818

CC(CN)N1CCc2sccc2C1 (stereo not drawn) [SX-F9]
V0 / Vi [1, 3]: 1.01
vinit [1, 3]: 34.291 and 27.273
V0 / Vi [2, 6]: 0.97
vinit [2, 6]: 18.364 and 18.582

Oc1ccc(-n2cncn2)cc1 [SX-H5]
V0 / Vi [1, 3]: 1.00
vinit [1, 3]: 33.091 and 32.545
V0 / Vi [2, 6]: 1.05
vinit [2, 6]: 16 and 16.3

c1ccc2oc(C3CCCNC3)nc2c1 (stereo not drawn) [SX-D10]
V0 / Vi [1, 3]: 0.92
vinit [1, 3]: 35.091 and 33.236
V0 / Vi [2, 6]: 0.95
vinit [2, 6]: 15 and 15.3

c1ccc2[nH]ccc2c1 [SX-A4]
V0 / Vi [1, 3]: 0.97
vinit [1, 3]: 31.418 and 30.036
V0 / Vi [2, 6]: 1.05
vinit [2, 6]: 15.929 and 16.714

Nc1ccc(SC(F)F)cc1 [SX-D1]
V0 / Vi [1, 3]: 1.00
vinit [1, 3]: 28.182 and 30.8
V0 / Vi [2, 6]: 0.99
vinit [2, 6]: 18.218 and 17.091

Cc1nc(-c2ccccc2)cs1 [SX-A7]
V0 / Vi [1, 3]: 0.97
vinit [1, 3]: 32.618 and 31.345
V0 / Vi [2, 6]: 0.98
vinit [2, 6]: 17.782 and 18.8

Cc1cc2ccccc2nc1N [SX-A1]
V0 / Vi [1, 3]: 0.95
vinit [1, 3]: 30.291 and 31.236
V0 / Vi [2, 4]: 1.84
vinit, avrg. [2, 4]: 8.852
vinit [2, 4]: 8.688 and 8.852 and 9.02
V0 / Vi [2, 5]: 1.59
vinit [2, 5]: 22.63 and 23.206 and 22.86
V0 / Vi [2, 6]: 1.83
vinit [2, 6]: 9.345 and 9.782
Ki ([2]; substrate 100 µM): 148 µM
Ki ([2]; substrate 200 µM): 152 µM
